In patent US20090012085A1, “DOSAGE FORMS AND METHODS OF TREATMENT USING A TYROSINE KINASE INHIBITOR” (priority 2005, published 2009):

System: solid tumor malignancies
Assay: Efficacy study in humans with solid tumors (RECIST, CT scan or MRI)
Assay type: in vivo, human
Set-up: key to Response time and response: PR means partial response; CR means complete response
Text: Complete Response (CR), as used herein, unless otherwise indicated, refers to disappearance of all measurable and nonmeasurable lesions and no appearance of new lesions in a patient under the treatment of compound of formula 1, its pharmaceutically acceptable salt or solvate thereof, or a mixture thereof.
Partial Response (PR), as used herein, unless other wise indicated, refers to at least a 30% decrease in the sum of the LDs of target lesions (taking as reference the baseline sum), without progression of nontarget lesions and no appearance of new lesions in a patient under treatment of compound of formula 1, its pharmaceutically acceptable salt or solvate thereof, or a mixture thereof.
50 patients were treated under a dose-escalating multicenter study of patients with solid tumor malignancies not amenable to conventional therapies. The types of tumor malignancies that the patients had included colorectal carcinoma, renal cell carcinoma, esophageal carcinoma, thymus carcinoma, mastocytosis, lung cancer and multiple endocrine neoplasia type II and other malignances. Patients were treated in cohorts of 6 with escalating QD (once per day) doses of a maleate salt of a compound of formula 1. Each study cycle was a five week cycle consisting of 4 weeks of treatment followed by 1 week of rest (4/1 schedule) or a five week cycle of continuous dosing without any rest period.
Of these 50 patients, all patients were evaluated for efficacy determinations. Tumor size was measured at the end of each cycle of treatment. […] The partial response of four of these seven patients was confirmed by a repeat assessment four weeks later. The partial response of the other three patients has not been confirmed. The tumor shrinkage was determined by either CT scan or MRI as per RECIST criteria.

## Cc1[nH]c(/C=C2\C(=O)Nc3ccc(F)cc32)c(C)c1C(=O)NC[C@H](O)CN1CCOCC1 [compound 1, 5-[(Z)-(5-fluoro-2-oxo-1,2-dihydro-3H-indol-3-ylidene)methyl]-N-[(2S)-2-hydroxy-3-morpholin-4-ylpropyl]-2,4-dimethyl-1H-pyrrole-3-carboxamide]
Patient 1, Renal cell carcinoma, 50 mg 4/1 QD, after 2nd cycle
  Response time and response: PR
Patient 1, Renal cell carcinoma, 50 mg 4/1 QD, at cycle 5
  Response time and response: CR
Patient 2, Biliary cell Carcinoma, 100 mg 4/1 QD, at cycle 5, confirmed
  Response time and response: PR at cycle 5, confirmed.
Patient 3, Thyroid carcinoma, 150 mg QD 4/1, after 1st cycle, confirmed
  Response time and response: PR after 1st cycle,
Patient 4, Colon adenocarcinoma, 150 mg QD 4/1, after 1st cycle, not confirmed
  Response time and response: PR after 1st cycle, not
Patient 5, Renal cell carcinoma, 250 mg QD 4/1, after 1st cycle, confirmed
  Response time and response: PR after 1st cycle,
Patient 6, Alveolar soft tissue carcinoma, cycle 1 250 mg QD 4/1, cycle 2 and beyond 200 mg QD 4/1, not confirmed
  Response time and response: PR, not confirmed
Patient 7, Renal cell carcinoma, 150 mg continuous, after 1st cycle, not confirmed
  Response time and response: PR after 1st cycle, not
Patient 8, Thymoma, cycle 1 150 mg continuous, cycle 2 and beyond 100 mg continuous, not confirmed
  Response time and response: PR, not confirmed.
Among the 50 patients
  patients showing complete response: 1 patient
  patients showing partial response: 7 patients
Of the seven patients with partial response
  partial responses confirmed by a repeat assessment four weeks later: four
